Experimental data published in patent US20160166556A1, “METHODS OF TREATING PULMONARY HYPERTENSION” (Gilead Sciences, Inc., priority 2014, published 2016).

Tested on: ASK1 pathway (p38 phosphorylation) in the rat RV
Experiment: Auranofin model of oxidative stress-induced ASK1 activation in the rat right ventricle (phospho-p38 Western blot)
Format: in vivo, Sprague-Dawley rats
Excerpt: IP90 was used as a loading control.
In this study, the auranofin model of oxidative stress-induced ASK1 activation was used to determine the effects of ASK1 inhibitor in preventing or inhibiting oxidative stress-induced activation of the ASK1 pathway in the rat RV. ASK1 is normally bound and repressed by the thiol-containing antioxidant protein thioredoxin 1 (Trx1). […] When administered in vivo, auranofin results in ASK1-mediated phosphorylation of p38MAPK, which in turn promotes induction of cytokine/chemokine gene expression.
Rats were then challenged with a single intraperitoneal (ip) injection of auranofin at 30 mg/kg to induce oxidative stress. The levels of phosphorylated p38 in RV lysates were evaluated by Western blot analysis and normalized to IP90.

Row | Compound | normalized level of phosphorylated p38 in RV (p-p38/IP90) (auranofin 30 mg/kg ip alone, mean±SEM, vehicle group 1.0±0.1) | auranofin-induced p38 phosphorylation in RV (single oral dose 0.3, 1, 3 or 10 mg/kg, then auranofin 30 mg/kg ip)
1 | CC[PH](CC)(CC)[Au][S][C@@H]1O[C@H](COC(C)=O)[C@@H](OC(C)=O)[C@H](OC(C)=O)[C@H]1OC(C)=O [auranofin, 2,3,4,6-tetra-O-acetyl-1-thio-β-d-glucopyranosato-S-(triethylphosphine) gold] | 2.0±0.2 | 
2 | Cc1cc(F)c(C(=O)Nc2cccc(-c3nncn3C(C)C)n2)cc1-n1cnc(C2CC2)c1 [Compound 3, 5-(4-cyclopropyl-1H-imidazol-1-yl)-2-fluoro-N-(6-(4-isopropyl-4H-1,2,4-triazol-3-yl)pyridin-2-yl)-4-methylbenzamide] |  | dose-dependent reduction
